Numbered stars: 1 amine (or outer) side, 2 acyl side, 3 side chain; on linkers, the order of the positions; unused ones are H or OH. Square brackets hold non-standard residues; d marks the D form. Peptide text beside a SMILES is read from it. * marks the point of attachment. DOTA = O=C(O)CN1CCN(CC(=O)O)CCN(CC(=O)*)CCN(CC(=O)O)CC1; Ala(9-anthryl) = N[C@@H](Cc1c2ccccc2cc2ccccc12)C(=O)O; Gly(N-(3-F-4-Me-benzyl)) = Cc1ccc(CNCC(=O)*)cc1F; X16 = O=C(c1ccc(-c2ccccc2)c(OCCCN[*:1])c1)[*:2]; Gly(Nα-4-MeO-benzyl) = COc1ccc(CNCC(=O)*)cc1; X4 = O=C(c1ccc(-c2ccccc2OCCCN[*:1])cc1)[*:2]; Api(1-amidino) = N=C(N)N1CCC(N)(C(=O)O)CC1; Phe(4-CN) = N#Cc1ccc(C[C@H](N)C(=O)O)cc1; X1 = O=C(CN1CCC(N[*:1])CC1)[*:2]; 4Pal = N[C@@H](Cc1ccncc1)C(=O)O; 2Thi = N[C@@H](Cc1cccs1)C(=O)O; 4Amb = NCc1ccc(C(=O)O)cc1; Octanoyl = CCCCCCCC(=O)*; Api = NC1(C(=O)O)CCNCC1; Ahx = NCCCCCC(=O)O; azaGly = NNC(=O)O
Target: human kisspeptin receptor (Homo sapiens (Human), UniProt Q969F8)
Test: Human KISS1R binding assay (membrane competition binding)
Settings: 90 min at room temperature; competition with 0.2 nM [125I]-metastin (45-54); Flp-In T-Rex 293 kisspeptin membranes; metal complexes nonradioactive Ga, In, Lu; read-out: hKiSSR Binding Ki (90 min)
In short: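 Membranes from tetracycline-induced (48 h) Flp-In T-Rex 293 cells expressing receptor, 5–10 μg, incubated 90 min at room temperature with 0.2 nM [125I]-metastin (45-54) and competitor (typically 0–10,000 nM) in Tris/Mg/Ca/EGTA/0.1% BSA, pH 7.4. Filtration, washing, counting; Ki by non-linear regression.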

Chain of human kisspeptin receptor (Q969F8 whole entry): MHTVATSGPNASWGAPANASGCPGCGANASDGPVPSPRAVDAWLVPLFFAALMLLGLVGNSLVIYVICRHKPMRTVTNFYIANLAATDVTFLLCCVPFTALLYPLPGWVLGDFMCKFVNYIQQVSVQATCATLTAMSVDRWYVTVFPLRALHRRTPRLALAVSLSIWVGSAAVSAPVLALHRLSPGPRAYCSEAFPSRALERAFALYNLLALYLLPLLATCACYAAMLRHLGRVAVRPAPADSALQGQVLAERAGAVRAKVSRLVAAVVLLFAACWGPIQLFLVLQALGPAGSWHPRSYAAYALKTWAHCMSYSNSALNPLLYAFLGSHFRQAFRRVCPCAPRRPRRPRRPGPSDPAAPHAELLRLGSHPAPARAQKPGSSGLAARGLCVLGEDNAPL

| SMILES | Ki [µM] |
| --- | --- |
| Cc1ccc(CNCC(=O)N2CCC(NC(=O)c3ccc(-c4ccccc4)c(OCCNC(=O)[C@H](Cc4ccccc4)NC(=O)CN4CCC(NC(=O)CN5CCN(CC(=O)O)CCN(CC(=O)O)CCN(CC(=O)O)CC5)CC4)c3)(C(=O)N[C@@H](Cc3c[nH]c4ccccc34)C(N)=O)CC2)cc1F [Compound 214] | < 0.01 |
| Cc1ccc(CNCC(=O)N2CCC(NC(=O)c3cc(OCCNC(=O)[C@H](Cc4ccccc4)NC(=O)CN4CCC(NC(=O)CN5CCN(CC(=O)O)CCN(CC(=O)O)CCN(CC(=O)O)CC5)CC4)cc(-c4ccccc4)c3)(C(=O)N[C@@H](Cc3c[nH]c4ccccc34)C(N)=O)CC2)cc1F [Compound 215] | > 0.1 |
| Cc1ccc(CNCC(=O)N2CCC(NC(=O)[C@H](CC(C)C)NC(=O)NNC(=O)c3ccc(-c4ccccc4)c(OCCCNC(=O)CN4CCC(NC(=O)CN5CCN(CC(=O)O)CCN(CC(=O)O)CCN(CC(=O)O)CC5)CC4)c3)(C(=O)N[C@@H](Cc3c[nH]c4ccccc34)C(N)=O)CC2)cc1F [Compound 216] ({DOTA}-[X1][X16][azaGly]L[Api](Gly(N-(3-F-4-Me-benzyl)))W-NH2) | < 0.01 |
| Cc1ccc(CNCC(=O)N2CCC(NC(=O)[C@H](CC(C)C)NC(=O)NNC(=O)c3ccc(-c4ccccc4OCCCNC(=O)CN4CCC(NC(=O)CN5CCN(CC(=O)O)CCN(CC(=O)O)CCN(CC(=O)O)CC5)CC4)cc3)(C(=O)N[C@@H](Cc3c[nH]c4ccccc34)C(N)=O)CC2)cc1F [Compound 217] ({DOTA}-[X1][X4][azaGly]L[Api](Gly(N-(3-F-4-Me-benzyl)))W-NH2) | < 0.01 |
| CC(C)C[C@H](NC(=O)NNC(=O)[C@H](Cc1ccccc1)NC(=O)[C@@H](NC(=O)[C@H](CC(N)=O)NC(=O)[C@H](Cc1c2ccccc2cc2ccccc12)NC(=O)[C@@H](Cc1ccc(O)cc1)NC(=O)CN1CCN(CC(=O)O)CCN(CC(=O)O)CCN(CC(=O)O)CC1)[C@@H](C)O)C(=O)NC1(C(=O)N[C@@H](Cc2ccncc2)C(N)=O)CCN(C(=N)N)CC1 [Compound 221] ({DOTA}-[dY][Ala(9-anthryl)]NTF[azaGly]L[Api(1-amidino)][4Pal]-NH2) | < 0.01 |
| CC(C)C[C@H](NC(=O)NNC(=O)[C@H](Cc1ccccc1)NC(=O)[C@@H](NC(=O)[C@H](CC(N)=O)NC(=O)[C@H](Cc1c2ccccc2cc2ccccc12)NC(=O)[C@@H](Cc1ccc(O)cc1)NC(=O)CCCCCNC(=O)CN1CCN(CC(=O)O)CCN(CC(=O)O)CCN(CC(=O)O)CC1)[C@@H](C)O)C(=O)NC1(C(=O)N[C@@H](Cc2ccncc2)C(N)=O)CCN(C(=N)N)CC1 [Compound 222] ({DOTA-Ahx}-[dY][Ala(9-anthryl)]NTF[azaGly]L[Api(1-amidino)][4Pal]-NH2) | < 0.01 |
| CCCCCCCC(=O)N[C@@H](CCCCNC(=O)CN1CCN(CC(=O)O)CCN(CC(=O)O)CCN(CC(=O)O)CC1)C(=O)N[C@@H](CC(N)=O)C(=O)N[C@H](C(=O)N[C@@H](Cc1ccccc1)C(=O)NNC(=O)N[C@@H](CC(C)C)C(=O)NC1(C(=O)N[C@@H](Cc2ccncc2)C(N)=O)CCN(C(=N)N)CC1)[C@@H](C)O [Compound 226] (Octanoyl-K(DOTA)NTF[azaGly]L[Api(1-amidino)][4Pal]-NH2) | 0.01 to 0.1 |
| Cc1ccc(CNCC(=O)N2CCC(NC(=O)[C@H](CC(C)C)NC(=O)NNC(=O)[C@H](Cc3ccccc3)NC(=O)[C@@H](NC(=O)CN3CCC(NC(=O)CN4CCN(CC(=O)O)CCN(CC(=O)O)CCN(CC(=O)O)CC4)CC3)[C@@H](C)O)(C(=O)N[C@@H](Cc3c[nH]c4ccccc34)C(N)=O)CC2)cc1F [Compound 233] ({DOTA}-[X1]TF[azaGly]L[Api](Gly(N-(3-F-4-Me-benzyl)))W-NH2) | < 0.01 |
| Cc1ccc(CNCC(=O)N2CCC(NC(=O)[C@H](CC(C)C)NC(=O)NNC(=O)[C@H](Cc3ccccc3)NC(=O)[C@@H](NC(=O)[C@H](CC(N)=O)NC(=O)c3ccc(CNC(=O)CN4CCN(CC(=O)O)CCN(CC(=O)O)CCN(CC(=O)O)CC4)cc3)[C@@H](C)O)(C(=O)N[C@@H](Cc3ccc(C#N)cc3)C(N)=O)CC2)cc1F [Compound 240] ({DOTA-4Amb}-NTF[azaGly]L[Api](Gly(N-(3-F-4-Me-benzyl)))[Phe(4-CN)]-NH2) | < 0.01 |
| Cc1ccc(CNCC(=O)N2CCC(NC(=O)[C@H](CC(C)C)NC(=O)NNC(=O)[C@H](Cc3ccccc3)NC(=O)CN3CCC(NC(=O)CN4CCN(CC(=O)O)CCN(CC(=O)O)CCN(CC(=O)O)CC4)CC3)(C(=O)N[C@@H](Cc3ccc(C#N)cc3)C(N)=O)CC2)cc1F [Compound 244] ({DOTA}-[X1]F[azaGly]L[Api](Gly(N-(3-F-4-Me-benzyl)))[Phe(4-CN)]-NH2) | < 0.01 |

Results, then the molecule that gave them:

| Ki [µM] | SMILES |
| --- | --- |
| < 0.01 | Cc1ccc(CNCC(=O)N2CCC(NC(=O)[C@H](CC(C)C)NC(=O)NNC(=O)[C@H](Cc3ccccc3)NC(=O)[C@@H](NC(=O)[C@H](CC(N)=O)NC(=O)[C@@H](CCC(=O)O)NC(=O)c3ccc(CNC(=O)CN4CCN(CC(=O)O)CCN(CC(=O)O)CCN(CC(=O)O)CC4)cc3)[C@@H](C)O)(C(=O)N[C@@H](Cc3ccc(O)cc3)C(N)=O)CC2)cc1F [Compound 206] ({DOTA-4Amb}-[dE]NTF[azaGly]L[Api](Gly(N-(3-F-4-Me-benzyl)))Y-NH2) |
| < 0.01 | Cc1ccc(CNCC(=O)N2CCC(NC(=O)[C@H](CC(C)C)NC(=O)NNC(=O)[C@H](Cc3ccccc3)NC(=O)[C@@H](NC(=O)[C@H](CC(N)=O)NC(=O)c3ccc(CNC(=O)[C@H](Cc4ccc(O)cc4)NC(=O)CNC(=O)CN4CCN(CC(=O)O)CCN(CC(=O)O)CCN(CC(=O)O)CC4)cc3)[C@@H](C)O)(C(=O)N[C@@H](Cc3c[nH]c4ccccc34)C(N)=O)CC2)cc1F [Compound 213] ({DOTA}-GY[4Amb]NTF[azaGly]L[Api](Gly(N-(3-F-4-Me-benzyl)))W-NH2) |
| < 0.01 | Cc1ccc(CNCC(=O)N2CCC(NC(=O)[C@H](CC(C)C)NC(=O)NNC(=O)[C@H](Cc3cccs3)NC(=O)[C@@H](NC(=O)[C@H](CC(N)=O)NC(=O)[C@H](CCC(=O)O)NC(=O)CN3CCC(NC(=O)CN4CCN(CC(=O)O)CCN(CC(=O)O)CCN(CC(=O)O)CC4)CC3)[C@@H](C)O)(C(=O)N[C@@H](Cc3c[nH]c4ccccc34)C(N)=O)CC2)cc1F [Compound 218] ({DOTA}-[X1]ENT[2Thi][azaGly]L[Api](Gly(N-(3-F-4-Me-benzyl)))W-NH2) |
| < 0.01 | Cc1ccc(CNCC(=O)N2CCC(NC(=O)[C@H](CC(C)C)NC(=O)NNC(=O)[C@H](Cc3ccccc3)NC(=O)[C@@H](NC(=O)[C@H](CCC(=O)O)NC(=O)CN3CCC(NC(=O)CN4CCN(CC(=O)O)CCN(CC(=O)O)CCN(CC(=O)O)CC4)CC3)[C@@H](C)O)(C(=O)N[C@@H](Cc3c[nH]c4ccccc34)C(N)=O)CC2)cc1F [Compound 234] ({DOTA}-[X1]ETF[azaGly]L[Api](Gly(N-(3-F-4-Me-benzyl)))W-NH2) |
| < 0.01 | COc1ccc(CNCC(=O)N2CCC(NC(=O)[C@H](CC(C)C)NC(=O)NNC(=O)[C@H](Cc3ccccc3)NC(=O)[C@@H](NC(=O)[C@H](CC(N)=O)NC(=O)CCCCCNC(=O)CN3CCN(CC(=O)O)CCN(CC(=O)O)CCN(CC(=O)O)CC3)[C@@H](C)O)(C(=O)N[C@@H](Cc3ccccc3)C(N)=O)CC2)cc1 [Compound 235] ({DOTA-Ahx}-NTF[azaGly]L[Api](Gly(Nα-4-MeO-benzyl))F-NH2) |
| < 0.01 | COc1ccc(CNCC(=O)N2CCC(NC(=O)[C@H](CC(C)C)NC(=O)NNC(=O)[C@H](Cc3ccccc3)NC(=O)[C@@H](NC(=O)[C@H](CC(N)=O)NC(=O)[C@H](CCC(=O)O)NC(=O)CCCCCNC(=O)CN3CCN(CC(=O)O)CCN(CC(=O)O)CCN(CC(=O)O)CC3)[C@@H](C)O)(C(=O)N[C@@H](Cc3ccccc3)C(N)=O)CC2)cc1 [Compound 236] ({DOTA-Ahx}-ENTF[azaGly]L[Api](Gly(Nα-4-MeO-benzyl))F-NH2) |
| < 0.01 | COc1ccc(CNCC(=O)N2CCC(NC(=O)[C@H](CC(C)C)NC(=O)NNC(=O)[C@H](Cc3ccccc3)NC(=O)[C@@H](NC(=O)[C@H](CC(N)=O)NC(=O)[C@H](CCC(=O)O)NC(=O)CN3CCN(CC(=O)O)CCN(CC(=O)O)CCN(CC(=O)O)CC3)[C@@H](C)O)(C(=O)N[C@@H](Cc3ccccc3)C(N)=O)CC2)cc1 [Compound 237] ({DOTA}-ENTF[azaGly]L[Api](Gly(Nα-4-MeO-benzyl))F-NH2) |
| < 0.01 | Cc1ccc(CNCC(=O)N2CCC(NC(=O)[C@H](CC(C)C)NC(=O)NNC(=O)[C@H](Cc3ccccc3)NC(=O)[C@@H](NC(=O)[C@H](CC(N)=O)NC(=O)[C@H](CCC(=O)O)NC(=O)CCCCCNC(=O)CN3CCN(CC(=O)O)CCN(CC(=O)O)CCN(CC(=O)O)CC3)[C@@H](C)O)(C(=O)N[C@@H](Cc3c[nH]c4ccccc34)C(N)=O)CC2)cc1F [Compound 238] ({DOTA-Ahx}-ENTF[azaGly]L[Api](Gly(N-(3-F-4-Me-benzyl)))W-NH2) |
| > 0.1 | COc1ccc(CNCC(=O)N2CCC(NC(=O)[C@@H](CC(C)C)NC(=O)NNC(=O)[C@H](Cc3ccccc3)NC(=O)[C@@H](NC(=O)[C@H](CC(N)=O)NC(=O)[C@H](CCC(=O)O)NC(=O)CN3CCN(CC(=O)O)CCN(CC(=O)O)CCN(CC(=O)O)CC3)[C@@H](C)O)(C(=O)N[C@@H](Cc3ccccc3)C(N)=O)CC2)cc1 [Compound 239] ({DOTA}-ENTF[azaGly][dL][Api](Gly(Nα-4-MeO-benzyl))F-NH2) |
| < 0.01 | Cc1ccc(CNCC(=O)N2CCC(NC(=O)[C@H](CC(C)C)NC(=O)NNC(=O)[C@H](Cc3ccccc3)NC(=O)[C@@H](NC(=O)[C@H](CC(N)=O)NC(=O)[C@H](CCC(=O)O)NC(=O)c3ccc(CNC(=O)CN4CCN(CC(=O)O)CCN(CC(=O)O)CCN(CC(=O)O)CC4)cc3)[C@@H](C)O)(C(=O)N[C@@H](Cc3ccc(C#N)cc3)C(N)=O)CC2)cc1F [Compound 241] ({DOTA-4Amb}-ENTF[azaGly]L[Api](Gly(N-(3-F-4-Me-benzyl)))[Phe(4-CN)]-NH2) |
| < 0.01 | Cc1ccc(CNCC(=O)N2CCC(NC(=O)[C@H](CC(C)C)NC(=O)NNC(=O)[C@H](Cc3ccccc3)NC(=O)[C@@H](NC(=O)[C@H](CC(N)=O)NC(=O)[C@@H](CCC(=O)O)NC(=O)c3ccc(CNC(=O)CN4CCN(CC(=O)O)CCN(CC(=O)O)CCN(CC(=O)O)CC4)cc3)[C@@H](C)O)(C(=O)N[C@@H](Cc3ccc(C#N)cc3)C(N)=O)CC2)cc1F [Compound 242] ({DOTA-4Amb}-[dE]NTF[azaGly]L[Api](Gly(N-(3-F-4-Me-benzyl)))[Phe(4-CN)]-NH2) |
